Patent publication US11208412B2 (DAEGU-GYEONGBUK MEDICAL INNOVATION FOUNDATION, priority 2017, dated 2021)
Read-outs that look alike come from different tables or passages of the source.

What was measured:
Experiment in all cases: Kinase selectivity, DiscoverX scanMAX Kinase assay panel (% control)
Type in all cases: binding
[1] = biological target: T1, kinases of the scanMAX Kinase assay panel (Homo sapiens, UniProt Q9UEE5); details: DRAK1; 1 uM
T1 construct: purchased DiscoverX Co. (contract measurement) scanMAX Kinase assay panel
T1 sequence (Q9UEE5 1-414): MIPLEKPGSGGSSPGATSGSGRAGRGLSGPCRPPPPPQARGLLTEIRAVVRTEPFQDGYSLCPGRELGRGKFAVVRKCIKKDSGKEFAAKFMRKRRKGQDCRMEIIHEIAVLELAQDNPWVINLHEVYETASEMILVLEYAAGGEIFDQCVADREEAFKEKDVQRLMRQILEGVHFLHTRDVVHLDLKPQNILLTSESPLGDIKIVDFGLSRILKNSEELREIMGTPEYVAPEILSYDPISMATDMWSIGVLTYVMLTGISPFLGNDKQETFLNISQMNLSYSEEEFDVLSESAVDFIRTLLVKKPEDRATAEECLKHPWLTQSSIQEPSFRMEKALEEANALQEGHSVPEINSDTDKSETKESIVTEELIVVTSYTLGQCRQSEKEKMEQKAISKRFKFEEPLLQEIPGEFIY
How it was run: (§1)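 A 1 uM DMSO solution of compound was applied across the panel kinases, and results were expressed as % control relative to DMSO (100%) and a positive control (0%).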

[2] = biological target: T2, kinases of the scanMAX Kinase assay panel (Homo sapiens, UniProt P51812); details: 1 uM in DMSO
T2 construct: purchased DiscoverX Co. (contract measurement) scanMAX Kinase assay panel
T2 sequence (P51812 whole entry): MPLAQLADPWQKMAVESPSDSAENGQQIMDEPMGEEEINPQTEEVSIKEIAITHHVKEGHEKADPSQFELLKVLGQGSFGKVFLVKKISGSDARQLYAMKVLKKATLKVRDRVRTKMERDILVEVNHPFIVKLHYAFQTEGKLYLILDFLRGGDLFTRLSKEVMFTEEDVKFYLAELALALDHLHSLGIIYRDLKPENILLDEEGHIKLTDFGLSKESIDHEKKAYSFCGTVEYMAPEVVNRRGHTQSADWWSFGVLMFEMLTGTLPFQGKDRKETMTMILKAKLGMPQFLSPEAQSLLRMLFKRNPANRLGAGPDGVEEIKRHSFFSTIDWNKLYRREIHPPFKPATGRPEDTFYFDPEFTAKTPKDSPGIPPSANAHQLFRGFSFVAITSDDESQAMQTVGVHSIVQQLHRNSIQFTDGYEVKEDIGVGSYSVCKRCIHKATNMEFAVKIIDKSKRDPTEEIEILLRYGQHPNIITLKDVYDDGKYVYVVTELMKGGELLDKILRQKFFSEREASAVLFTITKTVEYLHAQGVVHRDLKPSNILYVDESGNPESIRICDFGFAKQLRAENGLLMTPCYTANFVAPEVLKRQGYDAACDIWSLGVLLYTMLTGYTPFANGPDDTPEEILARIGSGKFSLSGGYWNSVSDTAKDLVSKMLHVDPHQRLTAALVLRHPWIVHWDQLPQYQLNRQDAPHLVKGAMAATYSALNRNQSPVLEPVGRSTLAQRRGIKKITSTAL
How it was run: as §1

[3] = biological target: T3, kinases of the scanMAX Kinase assay panel (Homo sapiens, UniProt Q15303); details: ERBB4; 1 uM
T3 construct: purchased DiscoverX Co. (contract measurement) scanMAX Kinase assay panel
T3 sequence (Q15303 26-1308): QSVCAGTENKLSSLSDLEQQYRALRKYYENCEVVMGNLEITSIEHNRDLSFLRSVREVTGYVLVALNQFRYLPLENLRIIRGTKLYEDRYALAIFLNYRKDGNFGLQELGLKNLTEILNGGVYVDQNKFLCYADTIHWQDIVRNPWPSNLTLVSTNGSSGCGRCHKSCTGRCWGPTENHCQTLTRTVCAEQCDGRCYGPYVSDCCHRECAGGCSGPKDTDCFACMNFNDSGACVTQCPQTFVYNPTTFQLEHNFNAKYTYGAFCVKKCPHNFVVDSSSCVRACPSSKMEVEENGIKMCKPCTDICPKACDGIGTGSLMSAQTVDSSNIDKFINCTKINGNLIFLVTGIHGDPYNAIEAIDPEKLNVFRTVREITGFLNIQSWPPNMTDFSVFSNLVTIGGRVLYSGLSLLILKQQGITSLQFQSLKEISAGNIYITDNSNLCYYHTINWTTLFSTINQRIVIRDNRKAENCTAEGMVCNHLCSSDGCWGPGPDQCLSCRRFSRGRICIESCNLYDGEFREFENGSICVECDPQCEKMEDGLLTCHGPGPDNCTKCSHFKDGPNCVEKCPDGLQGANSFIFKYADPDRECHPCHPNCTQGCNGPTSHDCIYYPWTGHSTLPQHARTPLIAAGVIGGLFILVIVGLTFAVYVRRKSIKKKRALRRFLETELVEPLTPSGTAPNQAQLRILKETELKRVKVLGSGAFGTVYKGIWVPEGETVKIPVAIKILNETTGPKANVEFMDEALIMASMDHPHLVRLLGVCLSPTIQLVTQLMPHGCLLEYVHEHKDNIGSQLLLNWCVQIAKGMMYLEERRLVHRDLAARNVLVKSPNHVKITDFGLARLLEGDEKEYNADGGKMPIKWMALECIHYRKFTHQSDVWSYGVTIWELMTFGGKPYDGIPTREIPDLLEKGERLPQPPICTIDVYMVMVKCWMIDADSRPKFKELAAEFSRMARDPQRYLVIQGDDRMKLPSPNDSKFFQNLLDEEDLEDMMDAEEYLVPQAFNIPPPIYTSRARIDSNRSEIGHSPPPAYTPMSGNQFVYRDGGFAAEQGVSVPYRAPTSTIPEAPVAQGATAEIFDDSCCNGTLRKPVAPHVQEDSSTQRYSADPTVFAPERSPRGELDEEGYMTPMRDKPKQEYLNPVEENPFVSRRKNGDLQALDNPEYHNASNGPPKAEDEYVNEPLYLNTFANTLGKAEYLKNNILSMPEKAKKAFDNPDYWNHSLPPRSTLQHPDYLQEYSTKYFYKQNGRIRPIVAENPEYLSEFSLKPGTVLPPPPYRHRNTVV
How it was run: as §1

[4] = biological target: T4, kinases of the scanMAX Kinase assay panel (Homo sapiens, UniProt Q8IU85); details: CAMK1D; 1 uM
T4 construct: purchased DiscoverX Co. (contract measurement) scanMAX Kinase assay panel
T4 sequence (Q8IU85 whole entry): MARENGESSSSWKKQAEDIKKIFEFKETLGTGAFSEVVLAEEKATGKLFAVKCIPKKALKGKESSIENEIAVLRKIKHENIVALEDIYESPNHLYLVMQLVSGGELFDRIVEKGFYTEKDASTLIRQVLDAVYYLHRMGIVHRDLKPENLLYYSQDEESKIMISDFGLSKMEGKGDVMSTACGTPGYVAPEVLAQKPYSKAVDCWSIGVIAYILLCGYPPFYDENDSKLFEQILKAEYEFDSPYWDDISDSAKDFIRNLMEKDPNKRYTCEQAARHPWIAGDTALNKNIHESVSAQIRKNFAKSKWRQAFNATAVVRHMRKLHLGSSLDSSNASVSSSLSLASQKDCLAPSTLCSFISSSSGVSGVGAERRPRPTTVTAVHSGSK
How it was run: as §1

[5] = biological target: T5, kinases of the scanMAX Kinase assay panel (Homo sapiens, UniProt Q02156); details: PRKCE; 1 uM
T5 construct: purchased DiscoverX Co. (contract measurement) scanMAX Kinase assay panel
T5 sequence (Q02156 1-737): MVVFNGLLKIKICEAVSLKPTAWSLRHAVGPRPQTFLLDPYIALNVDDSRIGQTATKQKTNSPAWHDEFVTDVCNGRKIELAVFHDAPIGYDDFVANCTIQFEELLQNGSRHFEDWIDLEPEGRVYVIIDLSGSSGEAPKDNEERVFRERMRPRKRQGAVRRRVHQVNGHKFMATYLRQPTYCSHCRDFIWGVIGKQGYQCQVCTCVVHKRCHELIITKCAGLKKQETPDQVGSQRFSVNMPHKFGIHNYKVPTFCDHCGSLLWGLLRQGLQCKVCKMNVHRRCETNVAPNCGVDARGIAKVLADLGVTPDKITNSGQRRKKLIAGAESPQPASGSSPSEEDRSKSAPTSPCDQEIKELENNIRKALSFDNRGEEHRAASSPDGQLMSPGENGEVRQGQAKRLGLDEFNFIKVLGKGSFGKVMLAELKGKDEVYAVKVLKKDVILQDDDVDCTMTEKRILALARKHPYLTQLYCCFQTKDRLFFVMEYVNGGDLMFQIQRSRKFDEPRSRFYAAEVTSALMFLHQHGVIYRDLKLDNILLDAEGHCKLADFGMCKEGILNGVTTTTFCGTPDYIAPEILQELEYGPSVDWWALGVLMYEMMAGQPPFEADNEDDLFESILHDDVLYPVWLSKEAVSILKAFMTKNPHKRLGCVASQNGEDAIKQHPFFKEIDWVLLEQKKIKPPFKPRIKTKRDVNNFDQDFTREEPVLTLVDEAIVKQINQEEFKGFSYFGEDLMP
How it was run: as §1

[6] = biological target: T6, kinases of the scanMAX Kinase assay panel (Homo sapiens, UniProt P51813); details: BMX; 1 uM
T6 construct: purchased DiscoverX Co. (contract measurement) scanMAX Kinase assay panel
T6 sequence (P51813 1-675): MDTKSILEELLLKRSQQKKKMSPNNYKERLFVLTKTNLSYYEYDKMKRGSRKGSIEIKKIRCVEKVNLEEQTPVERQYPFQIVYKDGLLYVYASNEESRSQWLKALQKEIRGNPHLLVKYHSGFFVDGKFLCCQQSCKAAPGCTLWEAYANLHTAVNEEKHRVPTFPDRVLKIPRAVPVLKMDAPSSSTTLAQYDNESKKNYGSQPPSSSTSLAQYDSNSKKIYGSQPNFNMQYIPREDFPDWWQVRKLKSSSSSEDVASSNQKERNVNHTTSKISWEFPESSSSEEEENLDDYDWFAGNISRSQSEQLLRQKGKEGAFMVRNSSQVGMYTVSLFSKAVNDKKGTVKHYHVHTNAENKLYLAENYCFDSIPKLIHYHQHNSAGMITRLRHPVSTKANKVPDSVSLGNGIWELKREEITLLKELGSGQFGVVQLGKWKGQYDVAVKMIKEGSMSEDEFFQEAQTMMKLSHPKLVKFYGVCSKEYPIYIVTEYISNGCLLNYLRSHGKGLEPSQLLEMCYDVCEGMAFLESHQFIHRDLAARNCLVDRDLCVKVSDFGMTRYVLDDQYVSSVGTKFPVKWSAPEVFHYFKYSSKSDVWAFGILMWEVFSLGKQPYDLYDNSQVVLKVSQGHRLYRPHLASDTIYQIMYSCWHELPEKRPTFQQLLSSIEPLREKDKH
How it was run: as §1

[7] = biological target: T7, kinases of the scanMAX Kinase assay panel (Homo sapiens, UniProt O15075); details: DCAMKL1; 1 uM
T7 construct: purchased DiscoverX Co. (contract measurement) scanMAX Kinase assay panel
T7 sequence (O15075 whole entry): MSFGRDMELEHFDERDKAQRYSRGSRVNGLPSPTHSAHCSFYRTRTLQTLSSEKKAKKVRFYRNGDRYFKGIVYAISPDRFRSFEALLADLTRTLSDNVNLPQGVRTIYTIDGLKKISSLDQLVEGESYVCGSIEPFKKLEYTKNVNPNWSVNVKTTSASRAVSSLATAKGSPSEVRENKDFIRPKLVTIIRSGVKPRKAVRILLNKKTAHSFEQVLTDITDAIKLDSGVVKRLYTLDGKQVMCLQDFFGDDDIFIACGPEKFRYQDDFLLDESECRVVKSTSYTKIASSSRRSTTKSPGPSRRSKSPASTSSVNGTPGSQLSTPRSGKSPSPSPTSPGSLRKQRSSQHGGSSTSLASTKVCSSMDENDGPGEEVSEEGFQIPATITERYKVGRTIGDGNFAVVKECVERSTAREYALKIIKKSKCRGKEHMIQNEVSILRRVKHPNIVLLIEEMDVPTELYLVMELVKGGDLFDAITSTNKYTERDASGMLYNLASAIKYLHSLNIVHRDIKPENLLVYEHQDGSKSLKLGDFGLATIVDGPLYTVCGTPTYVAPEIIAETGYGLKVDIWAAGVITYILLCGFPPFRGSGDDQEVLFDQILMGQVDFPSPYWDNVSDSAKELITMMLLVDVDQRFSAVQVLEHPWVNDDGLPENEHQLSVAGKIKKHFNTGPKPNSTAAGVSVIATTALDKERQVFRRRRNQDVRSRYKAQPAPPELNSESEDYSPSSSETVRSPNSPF
How it was run: as §1

[8] = biological target: T8, kinases of the scanMAX Kinase assay panel (Homo sapiens, UniProt Q9BQI3); details: EIF2AK1; 1 uM
T8 construct: purchased DiscoverX Co. (contract measurement) scanMAX Kinase assay panel
T8 sequence (Q9BQI3 whole entry): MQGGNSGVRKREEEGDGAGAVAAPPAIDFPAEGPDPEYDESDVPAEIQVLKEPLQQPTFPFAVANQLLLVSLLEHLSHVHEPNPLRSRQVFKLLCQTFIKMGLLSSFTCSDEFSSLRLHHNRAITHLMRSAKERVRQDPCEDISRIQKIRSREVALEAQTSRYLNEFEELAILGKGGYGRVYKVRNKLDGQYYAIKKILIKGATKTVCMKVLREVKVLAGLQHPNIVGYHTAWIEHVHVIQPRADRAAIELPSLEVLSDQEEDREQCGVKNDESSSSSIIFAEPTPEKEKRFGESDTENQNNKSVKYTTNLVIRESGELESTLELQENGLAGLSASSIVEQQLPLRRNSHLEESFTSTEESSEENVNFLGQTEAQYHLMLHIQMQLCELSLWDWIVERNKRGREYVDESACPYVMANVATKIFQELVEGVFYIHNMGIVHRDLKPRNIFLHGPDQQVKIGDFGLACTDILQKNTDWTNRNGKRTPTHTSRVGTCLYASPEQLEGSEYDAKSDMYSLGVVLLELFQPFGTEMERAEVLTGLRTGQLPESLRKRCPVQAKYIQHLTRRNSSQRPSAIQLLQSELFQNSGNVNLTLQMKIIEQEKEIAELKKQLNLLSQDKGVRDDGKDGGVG
How it was run: as §1

[9] = kinase RSK2(Kin.Dom.1-N-terminal), read-out: % control, RSK2(Kin.Dom.1-N-terminal)
[10] = kinase RSK2(Kin.Dom.2-C-terminal), read-out: % control, RSK2(Kin.Dom.2-C-terminal)

Q: For `CNc1nc(Nc2ccc(C(=O)N3CCOCC3)cc2OC)nc2[nH]cc(C#N)c12` [Example 1, 2-((2-methoxy-4-(morpholine-4-carbonyl)phenyl)amino)-4-(methylamino)-7H-pyrrolo[2,3-d]pyrimidine-5-carbonitrile], which remaining binding at 1 µM [1] is on record?
A: Its remaining binding at 1 µM is 37%.

Q: And the remaining binding at 1 µM [2, 9]?
A: The remaining binding at 1 µM was 68%.

Q: What about the remaining binding at 1 µM [2, 10] of the same compound?
A: The remaining binding at 1 µM was 66%.

Q: And the remaining binding at 1 µM [3]?
A: The remaining binding at 1 µM was 99%.

Q: And the remaining binding at 1 µM [4]?
A: The remaining binding at 1 µM was 50%.

Q: What about the remaining binding at 1 µM [5] of the same compound?
A: Its remaining binding at 1 µM is 100%.

Q: And the remaining binding at 1 µM [6]?
A: Its remaining binding at 1 µM is 93%.

Q: And the remaining binding at 1 µM [7]?
A: The remaining binding at 1 µM was 57%.

Q: And the remaining binding at 1 µM [8]?
A: The remaining binding at 1 µM was 64%.

Q: `CC1(Nc2nc(Nc3cnn([C@H]4CCN(C5COC5)C[C@@H]4F)c3Cl)nc3[nH]cc(C#N)c23)CC1` [Example 52, 2-((5-chloro-1-((3S,4S)-3-fluoro-1-(oxetane-3-yl)piperidine-4-yl)-1H-pyrazole-4-yl)amino)((1-methylcyclopropyl)amino)-7H-pyrrolo[2,3-d]pyrimidine-5-carbonitrile] was tested. Which remaining binding at 1 µM [1] did it give?
A: The remaining binding at 1 µM was 0.3%.

Q: And the remaining binding at 1 µM [2, 9]?
A: Its remaining binding at 1 µM is 0.55%.

Q: What about the remaining binding at 1 µM [2, 10] of the same compound?
A: Its remaining binding at 1 µM is 100%.

Q: And the remaining binding at 1 µM [3]?
A: Its remaining binding at 1 µM is 45%.

Q: And the remaining binding at 1 µM [4]?
A: The remaining binding at 1 µM was 14%.

Q: What about the remaining binding at 1 µM [5] of the same compound?
A: Its remaining binding at 1 µM is 100%.

Q: And the remaining binding at 1 µM [6]?
A: The remaining binding at 1 µM was 39%.

Q: What about the remaining binding at 1 µM [7] of the same compound?
A: The remaining binding at 1 µM was 34%.

Q: What about the remaining binding at 1 µM [8] of the same compound?
A: The remaining binding at 1 µM was 86%.

Q: What does the source list for `CCNc1nc(Nc2ccc(C(=O)N3CCC(N4CCOCC4)CC3)cc2OC)nc2[nH]cc(C(F)(F)F)c12` [Example 104, (4-((4-(ethylamino)-5-(trifluoromethyl)-7H-pyrrolo[2,3-d]pyrimidine-2-yl)amino)-3-methoxyphenyl)(4-morpholinopiperidine-1-yl)methanone]?
A: remaining binding at 1 µM [1]: 49%; remaining binding at 1 µM [2, 9]: 100%; remaining binding at 1 µM [2, 10]: 71%; remaining binding at 1 µM [3]: 100%; remaining binding at 1 µM [4]: 66%; remaining binding at 1 µM [5]: 100%; remaining binding at 1 µM [6]: 94%; remaining binding at 1 µM [7]: 49%; remaining binding at 1 µM [8]: 90%
